Read-outs that look alike come from different tables or passages of the source.

For orientation: IC50 means the midpoint of a concentration-inhibition curve.

Test [1] concerns the target T1, rat aortic rings (ETA receptors) (Rattus norvegicus, UniProt P26684).
T1 construct: from tissue; host or cells: thoracic aorta rings of adult Wistar rats, endothelium removed
T1 sequence (P26684 21-426): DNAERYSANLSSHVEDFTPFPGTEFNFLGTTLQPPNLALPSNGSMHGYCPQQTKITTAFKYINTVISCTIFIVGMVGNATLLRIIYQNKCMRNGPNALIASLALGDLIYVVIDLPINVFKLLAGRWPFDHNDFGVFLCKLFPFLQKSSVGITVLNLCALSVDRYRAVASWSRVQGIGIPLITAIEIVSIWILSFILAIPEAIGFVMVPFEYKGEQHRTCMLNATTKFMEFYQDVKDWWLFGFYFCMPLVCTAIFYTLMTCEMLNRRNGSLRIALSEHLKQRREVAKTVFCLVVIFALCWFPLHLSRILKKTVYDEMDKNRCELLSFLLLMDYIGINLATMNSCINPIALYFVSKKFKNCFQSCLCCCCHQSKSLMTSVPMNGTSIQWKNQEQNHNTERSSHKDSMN
The test can be described thus: Inhibition of endothelin-1-induced contractions on isolated rat aortic rings.

Test [2] addresses T2, rat tracheal rings (ETB receptors) (Rattus norvegicus, UniProt P21451).
T2 construct: from tissue; host or cells: tracheal rings of adult Wistar rats, epithelium removed
T2 sequence (P21451 27-442): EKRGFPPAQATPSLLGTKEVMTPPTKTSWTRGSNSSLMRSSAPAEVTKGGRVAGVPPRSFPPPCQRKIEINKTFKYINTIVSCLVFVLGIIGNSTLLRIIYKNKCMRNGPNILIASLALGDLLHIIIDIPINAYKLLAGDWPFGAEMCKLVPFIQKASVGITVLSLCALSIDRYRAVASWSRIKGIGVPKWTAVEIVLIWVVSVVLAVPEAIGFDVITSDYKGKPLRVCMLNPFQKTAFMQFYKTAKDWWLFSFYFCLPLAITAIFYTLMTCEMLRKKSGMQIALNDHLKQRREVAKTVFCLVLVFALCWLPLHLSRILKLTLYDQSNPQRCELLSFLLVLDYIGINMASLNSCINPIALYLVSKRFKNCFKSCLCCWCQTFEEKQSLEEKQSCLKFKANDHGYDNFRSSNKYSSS
The test can be described thus: Inhibition of sarafotoxin S6c-induced contractions on isolated rat tracheal rings. The method, then:
2) Inhibition of Endothelin-induced Contractions on Isolated Rat Aortic Rings (ETA Receptors) and Rat Tracheal Rings (ETB Receptors):
The functional inhibitory potency of the endothelin antagonists was assessed by their inhibition of the contraction induced by endothelin-1 on rat aortic rings (ETA receptors) and of the contraction induced by sarafotoxin S6c on rat tracheal rings (ETB receptors). Adult Wistar rats were anesthetized and exsanguinated. The thoracic aorta or trachea were excised, dissected and cut in 3–5 mm rings. The endothelium/epithelium was removed by gentle rubbing of the intimal surface. Each ring was suspended in a 10 ml isolated organ bath filled with Krebs-Henseleit solution (in mM; NaCl 115, KCl 4.7, MgSO4 1.2, KH2PO4 1.5, NaHCO3 25, CaCl2 2.5, glucose 10) kept at 37° C. and gassed with 95% O2 and 5% CO2. The rings were connected to force transducers and isometric tension was recorded (EMKA Technologies SA, Paris, France). The rings were stretched to a resting tension of 3 g (aorta) or 2 g (trachea). […] The functional inhibitory potency of the test compound was assessed by calculating the concentration ratio, i.e. the shift to the right of the EC50 induced by different concentrations of test compound. EC50 is the concentration of endothelin needed to get a half-maximal contraction, pA2 is the negative logarithm of the antagonist concentration which induces a two-fold shift in the EC50 value.

The target of test [3] is T3, human recombinant ETB receptors (Homo sapiens, UniProt P24530).
T3 construct: expressed in transfected cells; host or cells: CHO cells (microsomal membranes)
T3 sequence (P24530 27-442): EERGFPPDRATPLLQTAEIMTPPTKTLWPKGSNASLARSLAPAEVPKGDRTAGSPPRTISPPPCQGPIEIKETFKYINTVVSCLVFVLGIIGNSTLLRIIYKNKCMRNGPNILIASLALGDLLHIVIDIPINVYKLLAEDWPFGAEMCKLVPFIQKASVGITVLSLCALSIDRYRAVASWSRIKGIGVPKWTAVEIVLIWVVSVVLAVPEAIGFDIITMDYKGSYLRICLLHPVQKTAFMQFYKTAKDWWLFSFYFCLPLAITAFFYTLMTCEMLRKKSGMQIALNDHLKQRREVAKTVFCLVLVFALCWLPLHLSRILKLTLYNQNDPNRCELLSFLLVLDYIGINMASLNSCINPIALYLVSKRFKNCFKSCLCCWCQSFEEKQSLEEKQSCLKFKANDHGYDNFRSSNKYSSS
The test can be described thus: Inhibition of endothelin binding to membranes from CHO cells carrying human ET receptors (ETB). As to conditions: read-out: IC50 ETB.

Test [4] deals with T4, human recombinant ETA receptors (Homo sapiens, UniProt P25101).
T4 construct: expressed in transfected cells; host or cells: CHO cells (microsomal membranes)
T4 sequence (P25101 21-427): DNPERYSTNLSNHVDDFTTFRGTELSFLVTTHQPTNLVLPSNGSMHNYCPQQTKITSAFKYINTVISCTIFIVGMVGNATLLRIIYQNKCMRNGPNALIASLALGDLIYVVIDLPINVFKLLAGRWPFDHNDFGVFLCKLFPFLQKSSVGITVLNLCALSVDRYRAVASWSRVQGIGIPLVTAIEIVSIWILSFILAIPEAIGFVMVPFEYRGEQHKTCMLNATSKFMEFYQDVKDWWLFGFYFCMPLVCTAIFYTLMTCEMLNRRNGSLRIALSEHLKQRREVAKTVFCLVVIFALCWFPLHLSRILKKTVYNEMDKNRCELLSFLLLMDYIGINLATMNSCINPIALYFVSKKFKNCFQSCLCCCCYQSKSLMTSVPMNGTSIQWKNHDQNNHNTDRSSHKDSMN
In words: Inhibition of endothelin binding to membranes from CHO cells carrying human ET receptors (ETA). To be noted: read-out: IC50 ETA.

[5] abbreviates: read-out: pA2 (aortic rings) (converted).

For `COc1cc(OC)nc(O[C@H](C(=O)O)[C@@]2(c3ccccc3)NCC(=O)N(Cc3c(F)cc(F)cc3F)c3ccccc32)n1` (racemic) [Example 48], the Kb in test [1] (setting [5]) is 6.46 nM; in test [2] it was 525 nM.

Turning to `COc1cc(CN2C(=O)CN[C@](c3ccccc3)([C@H](Oc3nc(C)cc(C)n3)C(=O)O)c3ccccc32)cc(OC)c1` (racemic) [Example 51, (±)-(S*)-[(5S*)-1-(3,5-Dimethoxy-benzyl)-2-oxo-5-phenyl-2,3,4,5-tetra-hydro-1H-benzo[e][1,4]diazepin-5-yl]-(4,6-dimethyl-pyrimidin-2-yloxy)-acetic acid], the IC50 amounted to 26 nM in test [3] and 7 nM in test [4]. For the same compound, the Kb in test [1] (setting [5]) was 40.7 nM.

With `Cc1cc(C)nc(O[C@H](C(=O)O)[C@@]2(c3ccccc3)NCC(=O)N(Cc3c(F)cc(F)cc3F)c3ccccc32)n1` (racemic) [Example 107, (±)-(S*)-(4,6-dimethyl-pyrimidin-2-yloxy)-[(5S*)-2-oxo-5-phenyl-1-(2,4,6-trifluoro-benzyl)-2,3,4,5-tetrahydro-1H-benzo[e][1,4]diazepin-5-yl]-acetic acid], the IC50 in test [3] came out at 42 nM; in test [4] it was 1 nM. In addition, the Kb in test [1] was 6.61 nM; in test [2], 661 nM.

On to `Cc1cc(C)nc(O[C@H](C(=O)O)[C@@]2(c3ccccc3)NCC(=O)N(Cc3c(Cl)cccc3Cl)c3ccccc32)n1` (racemic) [Example 115], for which the IC50 in test [3] is 3 nM; in test [4], 1 nM. The Kb in test [1] is 2.82 nM; in test [2] it was 27.5 nM.

Consider `Cc1cc(C)nc(O[C@H](C(=O)O)[C@@]2(c3cccc(-c4ccccc4)c3)NCC(=O)N(Cc3c(F)cc(F)cc3F)c3ccccc32)n1` (racemic) [Example 211, (±)-(S*)-[(5S*)-5-biphenyl-3-yl-2-oxo-1-(2,4,6-trifluoro-benzyl)-2,3,4,5-tetrahydro-1H-benzo[e][1,4]di-azepin-5-yl]-(4,6-dimethyl-pyrimidin-2-yloxy)-acetic acid], for which the IC50 in test [3] turned out to be 62 nM; in test [4] it was 6 nM. The Kb in test [1] was 0.912 nM; in test [2], 85.1 nM.
